Reference: patent US20170051149A1, “AZOARYLS AS REVERSIBLY MODULATABLE TUBULIN INHIBITORS” (ECOLE NORMALE SUPERIEURE DE LYON, priority 2014, published 2017)

Experiments:
HEK-293T cells = experiment: MTT assay, light-dependent cell proliferation; type: cell-based; conditions: 72 h
[1] = UV-Vis absorption spectra of trans and cis isomers (λstrong, εE, λiso); type: physicochemical
[2] = fluorophore moiety range above 510 nm, PBS pH = 7.4, 20% MeCN

Structure (SMILES): COc1ccc(N=Nc2cc(OC)c(OC)c(OC)c2)cc1O [I.1, 2-methoxy-5-((3,4,5-trimethoxyphenyl)diazenyl)phenol]
- fold growth relative to cosolvent control (MTT) (HEK-293T cells; 100 nM, 390 nm, 0.35 s every 2 min): 1.31
- fold growth relative to cosolvent control (MTT) (HEK-293T cells; 100 nM, 390 nm, 0.35s then 490 nm, 3 s (rescue) every 2 min): 1.26
- fold growth relative to cosolvent control (MTT) (HEK-293T cells; 100 nM, 410 nm, 0.35 s every 2 min): 1.19
- fold growth relative to cosolvent control (MTT) (HEK-293T cells; 100 nM, 410 nm, 0.35 s then 505 nm, 3 s (rescue) every 2 min): 1.29
- fold growth relative to cosolvent control (MTT) (HEK-293T cells; 100 nM, 475 nm, 3 s every 2 min): 1.11
- fold growth relative to cosolvent control (MTT) (HEK-293T cells; 100 nM, 490 nm, 3 s every 2 min): 1.10
- fold growth relative to cosolvent control (MTT) (HEK-293T cells; 100 nM, 505 nm, 3 s every 2 min): 1.22
- fold growth relative to cosolvent control (MTT) (HEK-293T cells; 100 nM, 525 nm, 3 s every 2 min): 1.12
- fold growth relative to cosolvent control (MTT) (HEK-293T cells; 100 nM, Dark): 1.29
- fold growth relative to cosolvent control (MTT) (HEK-293T cells; 400 nM, 390 nm, 0.35 s every 2 min): 0.67
- fold growth relative to cosolvent control (MTT) (HEK-293T cells; 400 nM, 390 nm, 0.35s then 490 nm, 3 s (rescue) every 2 min): 0.69
- fold growth relative to cosolvent control (MTT) (HEK-293T cells; 400 nM, 410 nm, 0.35 s every 2 min): 0.70
- fold growth relative to cosolvent control (MTT) (HEK-293T cells; 400 nM, 410 nm, 0.35 s then 505 nm, 3 s (rescue) every 2 min): 0.86
- fold growth relative to cosolvent control (MTT) (HEK-293T cells; 400 nM, 475 nm, 3 s every 2 min): 0.55
- fold growth relative to cosolvent control (MTT) (HEK-293T cells; 400 nM, 490 nm, 3 s every 2 min): 0.69
- fold growth relative to cosolvent control (MTT) (HEK-293T cells; 400 nM, 505 nm, 3 s every 2 min): 0.87
- fold growth relative to cosolvent control (MTT) (HEK-293T cells; 400 nM, 525 nm, 3 s every 2 min): 0.82
- fold growth relative to cosolvent control (MTT) (HEK-293T cells; 400 nM, Dark): 0.87
- fold growth relative to cosolvent control (MTT) (HEK-293T cells; 800 nM, 390 nm, 0.35 s every 2 min): 0.38
- fold growth relative to cosolvent control (MTT) (HEK-293T cells; 800 nM, 390 nm, 0.35s then 490 nm, 3 s (rescue) every 2 min): 0.33
- fold growth relative to cosolvent control (MTT) (HEK-293T cells; 800 nM, 410 nm, 0.35 s every 2 min): 0.51
- fold growth relative to cosolvent control (MTT) (HEK-293T cells; 800 nM, 410 nm, 0.35 s then 505 nm, 3 s (rescue) every 2 min): 0.67
- fold growth relative to cosolvent control (MTT) (HEK-293T cells; 800 nM, 475 nm, 3 s every 2 min): 0.37
- fold growth relative to cosolvent control (MTT) (HEK-293T cells; 800 nM, 490 nm, 3 s every 2 min): 0.43
- fold growth relative to cosolvent control (MTT) (HEK-293T cells; 800 nM, 505 nm, 3 s every 2 min): 0.92
- fold growth relative to cosolvent control (MTT) (HEK-293T cells; 800 nM, 525 nm, 3 s every 2 min): 1.00
- fold growth relative to cosolvent control (MTT) (HEK-293T cells; 800 nM, Dark): 0.95
- fold growth relative to cosolvent control (MTT) (HEK-293T cells; 1.5 μM, 390 nm, 0.35 s every 2 min): 0.22
- fold growth relative to cosolvent control (MTT) (HEK-293T cells; 1.5 μM, 390 nm, 0.35s then 490 nm, 3 s (rescue) every 2 min): 0.18
- fold growth relative to cosolvent control (MTT) (HEK-293T cells; 1.5 μM, 410 nm, 0.35 s every 2 min): 0.25
- fold growth relative to cosolvent control (MTT) (HEK-293T cells; 1.5 μM, 410 nm, 0.35 s then 505 nm, 3 s (rescue) every 2 min): 0.25
- fold growth relative to cosolvent control (MTT) (HEK-293T cells; 1.5 μM, 475 nm, 3 s every 2 min): 0.19
- fold growth relative to cosolvent control (MTT) (HEK-293T cells; 1.5 μM, 490 nm, 3 s every 2 min): 0.19
- fold growth relative to cosolvent control (MTT) (HEK-293T cells; 1.5 μM, 505 nm, 3 s every 2 min): 0.42
- fold growth relative to cosolvent control (MTT) (HEK-293T cells; 1.5 μM, 525 nm, 3 s every 2 min): 0.66
- fold growth relative to cosolvent control (MTT) (HEK-293T cells; 1.5 μM, Dark): 0.71
- fold growth relative to cosolvent control (MTT) (HEK-293T cells; 3 μM, 390 nm, 0.35 s every 2 min): 0.17
- fold growth relative to cosolvent control (MTT) (HEK-293T cells; 3 μM, 390 nm, 0.35s then 490 nm, 3 s (rescue) every 2 min): 0.14
- fold growth relative to cosolvent control (MTT) (HEK-293T cells; 3 μM, 410 nm, 0.35 s every 2 min): 0.18
- fold growth relative to cosolvent control (MTT) (HEK-293T cells; 3 μM, 410 nm, 0.35 s then 505 nm, 3 s (rescue) every 2 min): 0.22
- fold growth relative to cosolvent control (MTT) (HEK-293T cells; 3 μM, 475 nm, 3 s every 2 min): 0.15
- fold growth relative to cosolvent control (MTT) (HEK-293T cells; 3 μM, 490 nm, 3 s every 2 min): 0.20
- fold growth relative to cosolvent control (MTT) (HEK-293T cells; 3 μM, 505 nm, 3 s every 2 min): 0.27
- fold growth relative to cosolvent control (MTT) (HEK-293T cells; 3 μM, 525 nm, 3 s every 2 min): 0.64
- fold growth relative to cosolvent control (MTT) (HEK-293T cells; 3 μM, Dark): 0.66
- fold growth relative to cosolvent control (MTT) (HEK-293T cells; 6 μM, 390 nm, 0.35 s every 2 min): 0.29
- fold growth relative to cosolvent control (MTT) (HEK-293T cells; 6 μM, 390 nm, 0.35s then 490 nm, 3 s (rescue) every 2 min): 0.18
- fold growth relative to cosolvent control (MTT) (HEK-293T cells; 6 μM, 410 nm, 0.35 s every 2 min): 0.23
- fold growth relative to cosolvent control (MTT) (HEK-293T cells; 6 μM, 410 nm, 0.35 s then 505 nm, 3 s (rescue) every 2 min): 0.30
- fold growth relative to cosolvent control (MTT) (HEK-293T cells; 6 μM, 475 nm, 3 s every 2 min): 0.21
- fold growth relative to cosolvent control (MTT) (HEK-293T cells; 6 μM, 490 nm, 3 s every 2 min): 0.34
- fold growth relative to cosolvent control (MTT) (HEK-293T cells; 6 μM, 505 nm, 3 s every 2 min): 0.27
- fold growth relative to cosolvent control (MTT) (HEK-293T cells; 6 μM, 525 nm, 3 s every 2 min): 0.39
- fold growth relative to cosolvent control (MTT) (HEK-293T cells; 6 μM, Dark): 0.80
- fold growth relative to cosolvent control (MTT) (HEK-293T cells; 15 μM, 390 nm, 0.35 s every 2 min): 0.28
- fold growth relative to cosolvent control (MTT) (HEK-293T cells; 15 μM, 390 nm, 0.35s then 490 nm, 3 s (rescue) every 2 min): 0.21
- fold growth relative to cosolvent control (MTT) (HEK-293T cells; 15 μM, 410 nm, 0.35 s every 2 min): 0.23
- fold growth relative to cosolvent control (MTT) (HEK-293T cells; 15 μM, 410 nm, 0.35 s then 505 nm, 3 s (rescue) every 2 min): 0.24
- fold growth relative to cosolvent control (MTT) (HEK-293T cells; 15 μM, 475 nm, 3 s every 2 min): 0.17
- fold growth relative to cosolvent control (MTT) (HEK-293T cells; 15 μM, 490 nm, 3 s every 2 min): 0.31
- fold growth relative to cosolvent control (MTT) (HEK-293T cells; 15 μM, 505 nm, 3 s every 2 min): 0.20
- fold growth relative to cosolvent control (MTT) (HEK-293T cells; 15 μM, 525 nm, 3 s every 2 min): 0.29
- fold growth relative to cosolvent control (MTT) (HEK-293T cells; 15 μM, Dark): 0.87
- εE(λstrong) ([1]; PBS pH = 6, 20% MeCN): 17100 M⁻¹ cm⁻¹
- λiso ([1]; PBS pH = 6, 20% MeCN): 465 nm
- λstrong ([1]; PBS pH = 6, 20% MeCN): 380 nm
- εE(λstrong) ([1]; PBS pH = 7.4, 20% MeCN): 17700 M⁻¹ cm⁻¹
- λiso ([1]; PBS pH = 7.4, 20% MeCN): 470 nm
- λstrong ([1]; PBS pH = 7.4, 20% MeCN): 375 nm

Structure (SMILES): CCN(CC)c1ccc2c(-c3ccccc3C(=O)N3CCN(CCCOc4c(N=Nc5cc(OC)c(OC)c(OC)c5)ccc(OC)c4C)CC3)c3ccc(=[N+](CC)CC)cc-3oc2c1.CCN(CC)c1ccc2c(-c3ccccc3C(=O)N3CCN(CCCOc4c(N=Nc5cc(OC)c(OC)c(OC)c5)ccc(OC)c4C)CC3)c3ccc(=[N+](CC)CC)cc-3oc2c1.O=C[O-].O=C[O-] [I.25, N-(6-(diethylamino)-9-(2-(4-(3-(3-methoxy-2-methyl-6-((3,4,5-trimethoxyphenyl)diazenyl)phenoxy)propyl)piperazine-1-carbonyl)phenyl)-3H-xanthen-3-ylidene)-N-ethylethanaminium bis(formate) salt]
- εE(λstrong) ([1]; PBS pH = 7.4, 20% MeCN): 15300 M⁻¹ cm⁻¹
- λiso ([1]; PBS pH = 7.4, 20% MeCN): 460 nm
- λstrong ([1]; PBS pH = 7.4, 20% MeCN): 375 nm
- εE(λstrong) [1, 2]: (66600) M^−1cm^−1
- λstrong [1, 2]: (565) nm
- λiso ([1]; fluorophore moiety range, A(λ > 510) invariant upon photoswitching): (510 ff) nm
